From patent US10723859B2, “Lignin valorization in ionic liquids and deep eutectic solvent via catalysis and biocatalysis” (University of Kentucky Research Foundation, priority 2017, dated 2020) come the findings set out here.

Entries after “also recorded” stand apart in the source; their conditions may differ.

Holding throughout (format): biochemical, Trametes versicolor
Experiment [1] relates to T. versicolor laccase. The experiment is described as follows: Biocompatibility screening of AILs with laccase (ABTS oxidation assay). The following applies: for inhibitory effect on laccase (comparison among the 3 ILs): varied concentration of laccase and ILs. As to the method:
All solutions used were adjusted to pH 5.0 prior to beginning experiments. Appropriate concentrations of laccase and AILs were mixed and added to clear, flat bottom 96-well Costar Assay Plates (Corning Inc.; Kenneburk, Me.). ABTS was added for a final concentration of 2 mM. Sodium citrate buffer (1.0 M, pH 5.0) was added for a final well volume of 250 μL. ABTS oxidation was measured for 5 minutes at 40° C. Absorbance readings were taken every 30 seconds at a wavelength of 420 nm using a SpectraMax M2 plate reader from Molecular Devices (Sunnyvale, Calif., USA). Plates were shaken for 5 seconds prior to initial reading and 3 seconds before each reading to ensure homogeneous well solutions.

Experiment [2] concerns T. versicolor laccase. Nature of the experiment: AIL inhibition: Michaelis-Menten and Lineweaver-Burke curves of laccase. The following applies: from changes in Vmax and Km with AIL concentration; ABTS substrate, 0.30 μg laccase. The method, then:
Michaelis-Menten curves were generated by mixing appropriate concentrations of AILs and ABTS with 0.30 μg laccase in 96-well plates. Sodium citrate buffer (1.0 M, pH 5.0) was added for a final well volume of 250 μL. ABTS oxidation was measured using the same method as the initial screening. Laccase activity (V) was measured as moles of ABTS oxidized per minute per gram of laccase (mol ABTS·min^−1·g^−1 lac.) and Km was measured in μmol ABTS. Activity was fit to the Michaelis-Menten curve, shown in equation 1. [formula] These curves were linearized using the Lineweaver-Burke method, resulting in equation 2. [formula] Equation 2 was used to solve for Km and Vmax of laccase in known concentrations of AILs.

Experiment [3] concerns T. versicolor laccase. Nature of the experiment: Lignin model compound (GGE) depolymerization by laccase in AILs, HPLC. As to conditions: 2% [C2C1Im][OAc] or 1% [Ch][Lys], 40° C., O2 30 psi, 2 hours. The method, then: Appropriate concentrations of AIL, ABTS, laccase, and GGE were mixed. Sodium citrate buffer (1.0 M, pH 5.0) was added for a final reaction volume of 1 mL. Reactions were carried out in a batch reactor at 40° C. Pure O2 was flowed through the reactor for 1 minute. The release valve of the reactor was closed, pure O2 was flowed in at a pressure of 30 psi, and the reaction was allowed to proceed for an additional 2 hours. Product profiles were analyzed by HPLC using the method as described previously (Deng, Zhang et al. 2015). Water and acetonitrile (8:2 v/v) was used as a mobile phase. Mobile phase was flowed at 0.5 mL min^−1 for 30 minutes through an Ultimate 3000 HPLC system (Dionex Corporation, Sunnyvale, Calif., USA) equipped with ultraviolet (UV) detector. Separation was achieved through use of a Zorbax Eclipse XDB-C18 column (5 μm particle size, 150×4.6 mm i.d., Agilent Technologies, Santa Clara, Calif., USA) at 25° C. Elution profile of column was measured by UV absorbance at 280 nm.

Take `CC(=O)[O-].CCn1cc[n+](C)c1` [[C2C1Im][OAc], 1-ethyl-3-methylimidazolium acetate]: in experiment [1] (2% IL, ABTS assay), the “loss of laccase activity” value is “significant loss of laccase activity”. Further, in experiment [1] (ABTS assay, acetate), the “inhibitory effect on laccase (comparison among the 3 ILs)” value (shortened to “inhibitory effect on laccase”) is “more inhibitory to laccase”. For the same compound, in experiment [2], the “type of inhibition of laccase” value was “mixed inhibition”. Besides, the “degradation of GGE by laccase in AIL” value in experiment [3] (with mediator ABTS) is recorded as “able to break down GGE”; in experiment [3] (without ABTS, 10% [DEA][HSO4]) it was “not capable of breaking down GGE”.

`CCNCC.O=S(=O)(O)O` [[DEA][HSO4], diethyl ammonium hydrogen sulfate]: in experiment [1] (10% IL, ABTS assay), the “loss of laccase activity” value is “losing little of its activity; also recorded: negligible to modest loss of laccase activity”. In addition, the “inhibitory effect on laccase” value in experiment [1] (ABTS assay) is reported as “most biocompatible; also recorded: did not impede the ability of laccase to oxidize ABTS”. In experiment [2], the “type of inhibition of laccase” value was “noncompetitive inhibition”. Further, the “degradation of GGE by laccase in AIL” value in experiment [3] (without ABTS, 10% [DEA][HSO4]) is recorded as “capable of degrading GGE”.

For the compound `C[N+](C)(C)CCO.NCCCC[C@H](N)C(=O)[O-]` [[Ch][Lys], cholinium lysinate], the “loss of laccase activity” value in experiment [1] (2% AIL, ABTS oxidation, pH 5.0, 40° C.) was more than 50%. For the same compound, the “inhibitory effect on laccase” value in experiment [1] (ABTS assay) was “more inhibitory”. For the same compound, the “type of inhibition of laccase” value in experiment [2] was “mixed inhibition”. Further, the “degradation of GGE by laccase in AIL” value in experiment [3] (with mediator ABTS) is recorded as “able to break down GGE”; in experiment [3] (without ABTS, 10% [DEA][HSO4]), “not capable of breaking down GGE”.
